Results: PMC8227856, “Antibacterial Activity of a Promising Antibacterial Agent: 22-(4-(2-(4-Nitrophenyl-piperazin-1-yl)-acetyl)-piperazin-1-yl)-22-deoxypleuromutilin” (Molecules, 2021)
In brackets after ≈: the same amount, converted by molar mass.

What was measured:
S. aureus ATCC 29213 [1] = assay: Time-kill assay; format: cell-based, Staphylococcus aureus
Experimental: (§1) The MRSA and S. aureus in the logarithmic phase were diluted to 10^6 CFU/mL with MHB. Then diverse concentrations of NPDM or tiamulin were added to the bacteria solution reaching the final concentration of 1 × MIC, 2 × MIC, 4 × MIC, and 8 × MIC, respectively. All bacterial inoculums were cultured at 37 °C with shaking. A total of 100 μL samples were taken from the subcultures at 0, 3, 6, 9, and 24 h, respectively, and continuously diluted 10-fold in sterile saline; then, 25 μL diluent was plated on the MHA plate. All plates were placed at 37 °C for 24 h. The total number of colonies on the plate was counted, and the results were expressed as log (CFU/mL).

MRSA ATCC 43300 [2] = assay: Time-kill assay; format: cell-based, Staphylococcus aureus
Experimental: as §1

MRSA ATCC 43300 [3] = assay: MBC assay; format: cell-based, Staphylococcus aureus; conditions: Staphylococcus aureus; MRSA ATCC 43300
Experimental: (§2) Determination of MBCs refers to the minimum concentrations of antibacterial agents required to kill 99.9% of the test microorganisms after 24 h of incubation. After obtaining the MICs value, the 96-well plates were placed at 37 °C and incubated for 24 h. One hundred microliter aliquots of the bacterial suspensions were taken from the wells without visible bacterial growth and then plated onto MHA plates. […] The MBC assay was conducted at least in triplicate.

MRSA ATCC 43300 [4] = assay: Galleria mellonella infection model; format: in vivo; conditions: Staphylococcus aureus, 120 h; Galleria mellonella larvae infected with MRSA, survival over 5 days
Experimental: The survival rate of Galleria mellonella was determined according to the literature with some modifications. Larvae of Galleria mellonella (16 per group) were injected with 10 μL of 10^8 CFU/mL MRSA inoculum into the last right proleg. Two hours after infection, larvae were injected with 10 μL of various doses (17.14, 25.71, 37.14, 57.14, and 85.71 mg/kg) of NPDM or tiamulin (used as reference drug) into the last left proleg. The larvae were maintained at 37 °C. Survival of the larvae was recorded daily for 5 days, and the ED50 was calculated.

MRSA ATCC 43300 [5] = assay: Post-antibiotic effect (PAE) assay; format: cell-based, Staphylococcus aureus
Experimental: The PAE was carried out as described in the literature. The MRSA was diluted to 10^6 CFU/mL in MHB. The NPDM or tiamulin was added into the bacteria solution at the final concentrations of 2 × MIC and 4 × MIC. Then all tubes were incubated at 37 °C for 1 h or 2 h. Each of the above inoculums was diluted 1000-fold with pre-warmed MHB to remove the test compounds and placed in a water bath at 37 °C immediately. One hundred microliters of suspension were taken from each culture, diluted 10-fold in sterile saline, and inoculated on MHA plates at 0, 1, 2, 4, and 6 h after inoculation. The total number comprising the colonies was counted after incubation at 37 °C for 20 h. The PAE was calculated referring to published methods. The experiment was performed in triplicate.

BRL-3A cells = assay: Cytotoxicity, MTT assay; format: cell-based; conditions: Rattus norvegicus; BRL-3A cells, MTT, 16 h incubation; read-out: 50% inhibition concentration (IC50), cell viability
Experimental: The cytotoxicity of NPDM was evaluated by the MTT assay as previously reported. Briefly, the medium containing 1 × 10^5 BRL-3A cells per 1 mL was seeded into a 96-well plate at 100 μL per well. After incubation for 48 h, media were replaced with 100 μL of serial dilutions of test compounds and incubated for 16 h. The absorbance (A) was measured at 490 nm by an automatic microplate reader (BIO-TEK Instrument Inc., Winooski, VT, USA). The cell viability was calculated according to Equation (1):(1) Cell viability (%) = (Asimple−Anegative)/(Apositive−Anegative)×100%
A graph was constructed by plotting the inhibition percentage versus various concentrations of NPDM and tiamulin, from which the IC50 of NPDM or tiamulin was calculated. The measurement was repeated in triplicate.

S. aureus ATCC 29213 [6] = assay: Neutropenic mouse thigh infection model; format: in vivo, Staphylococcus aureus; conditions: 20 mg/kg i.v., neutropenic mice
Experimental: (§3) The mouse thigh infection model was performed as described in the literature with minor modifications. Briefly, female mice had induced neutropenia (neutrophil count ≤ 100/mm^3) by administered intraperitoneally cyclophosphamide on day 4 (150 mg/kg) and day 1 (100 mg/kg) before the experiment. A bacterial suspension of 0.1 mL (MRSA or S. aureus) containing approximately 10^7 CFU/mL microorganism was injected into the posterior thigh of mice to establish infection. Two hours after infection, mice were intravenously injected with NPDM or tiamulin at 20 mg/kg. After 24 h, thighs (six per group) were collected upon euthanasia. Then, thighs were weighed and homogenized with sterile saline. Tissue homogenate was continuously diluted 10-fold and plated on MHA plates for colony counts. SPSS 19 software was used for statistical analysis and t-tests.

MRSA ATCC 43300 [7] = assay: Neutropenic mouse thigh infection model; format: in vivo, Staphylococcus aureus; conditions: 20 mg/kg i.v., neutropenic mice
Experimental: as §3

[8] = tested on: S. aureus AD3 (clinical strain); assay: MBC assay; format: cell-based; conditions: Staphylococcus aureus
Experimental: as §2

S. aureus ATCC 29213 [9] = assay: MBC assay; format: cell-based; conditions: Staphylococcus aureus, ATCC29213
Experimental: as §2

[10] = tested on: S. aureus 144 (clinical strain); assay: MBC assay; format: cell-based; conditions: Staphylococcus aureus
Experimental: as §2

[11] = tested on: S. aureus AD3 (clinical strain); assay: MIC, broth dilution micro-method; format: cell-based; conditions: Staphylococcus aureus, 24 h, MHB
Experimental: (§4) The MICs of NPDM against MRSA were determined by the broth dilution micro-method. Briefly, the stock solution of NPDM and the reference drug tiamulin were diluted by a two-fold serial dilution method with MHB in a 96-well plate to provide concentration ranges of 16~0.032 μg/mL. Then 100 μL of bacterial suspensions in log phase were diluted to 10^6 CFU/mL with MHB and were added to each well to make the final concentrations of the test compounds ranging from 8 to 0.016 μg/mL. The bacterial suspension (no drugs but solvent) was used as the positive control and MHB (no cultures) was used as the negative control. […] The MICs assay was carried out in triplicate.

S. aureus ATCC 29213 [12] = assay: MIC, broth dilution micro-method; format: cell-based; conditions: Staphylococcus aureus, ATCC29213, 24 h, MHB
Experimental: as §4

MRSA ATCC 43300 [13] = assay: MIC, broth dilution micro-method; format: cell-based; conditions: Staphylococcus aureus, 24 h, MHB
Experimental: as §4

[14] = tested on: S. aureus 144 (clinical strain); assay: MIC, broth dilution micro-method; format: cell-based; conditions: Staphylococcus aureus, 24 h, MHB
Experimental: as §4

- MIC [11]: 0.5 µg/mL (≈ 1.01 µM)
- MIC (S. aureus ATCC 29213 [12]): 0.5 µg/mL (≈ 1.01 µM)
- MIC (MRSA ATCC 43300 [13]): 0.5 µg/mL (≈ 1.01 µM)
- MIC [14]: 0.5 µg/mL (≈ 1.01 µM)
Structure (SMILES): C=C[C@]1(C)C[C@@H](OC(=O)CSCCN(CC)CC)[C@]2(C)[C@H](C)CC[C@]3(CCC(=O)[C@H]32)[C@@H](C)[C@@H]1O [Tiamulin, reference compound]
- Concentration showing bacteriostatic effect (S. aureus ATCC 29213 [1]): ≥ 2 × MIC
- Time-kill activity at 2 × MIC (MRSA ATCC 43300 [2]; 2 × MIC): bacteriostatic activity with a rebound growth
- Concentration showing bactericidal activity (≥3 log10 CFU/mL decrease) (MRSA ATCC 43300 [2]; after incubation for 24 h): ≥ 4 × MIC
- MBC (MRSA ATCC 43300 [3]): 0.5 µg/mL (≈ 1.01 µM)
- ED50 (MRSA ATCC 43300 [4]): 75.7 mg/kg
- PAE (MRSA ATCC 43300 [5]; 2 × MIC, exposure for 1 h): 1.53 h
- PAE (MRSA ATCC 43300 [5]; 2 × MIC, exposure for 2 h): 1.65 h
- PAE (MRSA ATCC 43300 [5]; 4 × MIC, exposure for 1 h): 1.90 h
- PAE (MRSA ATCC 43300 [5]; 4 × MIC, exposure for 2 h): 2.04 h
- IC50 (BRL-3A cells): 13.1 µg/mL (≈ 26.5 µM)
- Average amount of S. aureus inoculum in thighs (S. aureus ATCC 29213 [6]; 24 h after treatment): (2.00 ± 1.21) × 10^8 CFU
- Reduction of mean bacterial counts in thighs vs untreated group (S. aureus ATCC 29213 [6]; S. aureus, 24 h): ~ 0.68 log CFU/mL
- Reduction of mean MRSA counts in thighs vs untreated group (MRSA ATCC 43300 [7]; 24 h): ~ 1.15 log CFU/mL
- Average amount of MRSA inoculum in thighs (MRSA ATCC 43300 [7]; 24 h after treatment): (2.64 ± 1.95) × 10^8 CFU
- MBC [8]: 2 µg/mL (≈ 4.05 µM)
- MBC (S. aureus ATCC 29213 [9]): 0.5 µg/mL (≈ 1.01 µM)
- MBC [10]: 2 µg/mL (≈ 4.05 µM)
